Experimental data published in US11414384B2, “P300/CBP hat inhibitors” (Constellation Pharmaceuticals, Inc., priority 2018, dated 2022).

Molecular target: p300 HAT domain (residues 1287-1666) (Homo sapiens (Human), UniProt Q09472)
Assay: p300 HAT SPA assay (scintillation proximity assay, acetylation of biotinylated H3(1-21) peptide)
Format: biochemical
Conditions: P300 HAT SPA IC50, p300 HAT domain; average of at least 2 replicate titrations
In short: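 Scintillation proximity readout of acetylated biotin-H3(1-21) captured on streptavidin plates after 1.5 hr at RT; enzyme was Ni2+/anion-exchange-purified HAT domain in 20 mM Hepes pH 7.5. Inhibitor IC50s calculated from the data.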

p300 HAT domain (residues 1287-1666), sequence (Q09472 1287-1666): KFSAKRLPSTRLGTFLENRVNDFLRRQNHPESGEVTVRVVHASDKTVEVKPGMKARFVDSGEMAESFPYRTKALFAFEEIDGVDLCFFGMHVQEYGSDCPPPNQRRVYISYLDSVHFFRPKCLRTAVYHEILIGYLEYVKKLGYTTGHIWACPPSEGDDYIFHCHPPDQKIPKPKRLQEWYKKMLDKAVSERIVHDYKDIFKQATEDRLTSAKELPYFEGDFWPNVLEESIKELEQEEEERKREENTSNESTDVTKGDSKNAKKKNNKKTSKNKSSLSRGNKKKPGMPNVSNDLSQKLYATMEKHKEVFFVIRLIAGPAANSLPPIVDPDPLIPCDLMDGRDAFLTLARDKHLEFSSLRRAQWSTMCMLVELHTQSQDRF

Row | SMILES | IC50
1 | O=C(c1cn(CCO)c2ccccc12)C(NCCc1ccc(Cl)cc1)c1ccccc1 (single isomer, unassigned) [128 Isomer 2] | 13.4 µM
2 | CCn1cc(C(=O)C(NCCc2ccc(Cl)cc2)c2ccccc2)c2ccccc21 (single isomer, unassigned) [129 Isomer 1] | 11.8 µM
3 | CCn1cc(C(=O)C(NCCc2ccc(Cl)cc2)c2ccccc2)c2ccccc21 (single isomer, unassigned) [129 Isomer 2] | 1.81 µM
4 | O=C(c1cn(CC(F)(F)F)c2ccccc12)C(NCCc1ccc(Cl)cc1)c1ccccc1 (single isomer, unassigned) [130 Isomer 1] | > 60 µM

Same assay, conditions: p300 HAT domain; average of at least 2 replicate titrations; read-out: P300 HAT SPA IC50

Row | SMILES | IC50
5 | CNC(=O)c1ccc(CCN[C@H](C(=O)c2c[nH]c3cc(-c4cnn(C)c4)ccc23)c2ccccc2)cc1 (single isomer, unassigned) [131 Isomer 1] | > 30 µM
6 | O=C(O)c1ccc(CCNC(C(=O)c2c[nH]c3ccccc23)c2ccccc2)cc1 (single isomer, unassigned) [132 Isomer 2] | 17.9 µM
7 | NC(=O)c1ccc(CCNC(C(=O)c2c[nH]c3ccccc23)c2ccccc2)cc1 (single isomer, unassigned) [133 Isomer 1] | 22.9 µM
8 | CNC(=O)c1ccc(CCNC(C(=O)c2c[nH]c3ccccc23)c2ccccc2)cc1 (single isomer, unassigned) [134 Isomer 1] | > 60 µM
9 | CN(C)C(=O)c1ccc(CCNC(C(=O)c2c[nH]c3ccccc23)c2ccccc2)cc1 (single isomer, unassigned) [135 Isomer 1] | > 60 µM
10 | CNC(=O)Cc1ccc(CCNC(C(=O)c2c[nH]c3ccccc23)c2ccccc2)cc1 (single isomer, unassigned) [136 Isomer 1] | 8.69 µM
11 | CNC(=O)Cc1ccc(CCNC(C(=O)c2c[nH]c3ccccc23)c2ccccc2)cc1 (single isomer, unassigned) [136 Isomer 2] | > 60 µM
12 | CN(C)C(=O)Cc1ccc(CCNC(C(=O)c2c[nH]c3ccccc23)c2ccccc2)cc1 (single isomer, unassigned) [137 Isomer 1] | 21.8 µM
13 | CN(C)C(=O)Cc1ccc(CCNC(C(=O)c2c[nH]c3ccccc23)c2ccccc2)cc1 (single isomer, unassigned) [137 Isomer 2] | > 60 µM
14 | Cn1cc(-c2ccc3c(C(=O)C(NCCc4ccc(C(=O)O)cc4)c4ccccc4)c[nH]c3c2)cn1 (single isomer, unassigned) [138 Isomer 2] | 4.3 µM
15 | Cn1cc(-c2ccc3c(C(=O)C(NCCc4ccc(C(N)=O)cc4)c4ccccc4)c[nH]c3c2)cn1 (single isomer, unassigned) [139 Isomer 1] | 8.29 µM
16 | CC(Cc1ccc(C(N)=O)cc1)NC(C(=O)c1c[nH]c2ccccc12)c1ccccc1 (single isomer, unassigned) [140 Isomer 1] | > 5 µM
17 | CC(Cc1ccc(C(N)=O)cc1)NC(C(=O)c1c[nH]c2ccccc12)c1ccccc1 (single isomer, unassigned) [140 Isomer 2] | 1.54 µM
18 | CC(Cc1ccc(C(N)=O)cc1)NC(C(=O)c1c[nH]c2ccccc12)c1ccccc1 (single isomer, unassigned) [140 Isomer 3] | > 5 µM
19 | CC(Cc1ccc(C(N)=O)cc1)NC(C(=O)c1c[nH]c2ccccc12)c1ccccc1 (single isomer, unassigned) [140 Isomer 4] | > 5 µM
20 | CC(CNC(C(=O)c1c[nH]c2ccccc12)c1ccccc1)c1ccc(C(N)=O)cc1 (single isomer, unassigned) [141 Isomer 1] | 0.872 µM
21 | CC(CNC(C(=O)c1c[nH]c2ccccc12)c1ccccc1)c1ccc(C(N)=O)cc1 (single isomer, unassigned) [141 Isomer 2] | > 5 µM
22 | Cn1cc(-c2ccc3c(C(=O)C(NCCc4ccc(C(=O)O)cc4Cl)c4ccccc4)c[nH]c3c2)cn1 (single isomer, unassigned) [142 Isomer 1] | 3.27 µM
23 | COc1cccc2c(C(=O)[C@@H](NCCc3ccc(S(N)(=O)=O)cc3)c3ccccc3)c[nH]c12 (single isomer, unassigned) [144 Isomer 1] | 9.95 µM
24 | COc1ccc(CCN[C@H](C(=O)c2c[nH]c3c(C(C)C)cccc23)c2ccccc2)cc1 (single isomer, unassigned) [145 Isomer 2] | > 60 µM
25 | CNC(=O)c1cccc2c(C(=O)C(NCCc3ccc(Cl)cc3Cl)c3ccccc3)c[nH]c12 (single isomer, unassigned) [147 Isomer 1] | > 30 µM
26 | CN(C)C(=O)c1cccc2c(C(=O)C(NCCc3ccc(Cl)cc3Cl)c3ccccc3)c[nH]c12 (single isomer, unassigned) [148 Isomer 1] | > 30 µM
27 | CN(C)CCNC(=O)c1cccc2c(C(=O)C(NCCc3ccc(Cl)cc3Cl)c3ccccc3)c[nH]c12 (single isomer, unassigned) [149 Isomer 2] | 11.6 µM
28 | COCCNC(=O)c1cccc2c(C(=O)C(NCCc3ccc(Cl)cc3Cl)c3ccccc3)c[nH]c12 (single isomer, unassigned) [150 Isomer 2] | > 30 µM
29 | CNC(=O)c1ccc2c(C(=O)C(NCCc3ccc(Cl)cc3Cl)c3ccccc3)c[nH]c2c1 (single isomer, unassigned) [151 Isomer 1] | 11.5 µM

Row | SMILES | IC50
30 | CN(C)C(=O)c1ccc2c(C(=O)C(NCCc3ccc(Cl)cc3Cl)c3ccccc3)c[nH]c2c1 (single isomer, unassigned) [152 Isomer 1] | > 30 µM
31 | N#Cc1ccc(CCNC(C(=O)c2c[nH]c3cc(C(=O)NCC(F)(F)F)ccc23)c2ccccc2)cc1 (single isomer, unassigned) [157 Isomer 1] | 1.2 µM
32 | CNC(=O)CCc1ccc2c(C(=O)C(NCCc3ccc(F)cc3)c3ccccc3)c[nH]c2c1 (single isomer, unassigned) [158 Isomer 2] | > 5 µM
33 | O=C(O)CCc1ccc2c(C(=O)C(NCCc3ccc(F)cc3)c3ccccc3)c[nH]c2c1 (single isomer, unassigned) [159 Isomer 1] | 25.2 µM
34 | N#Cc1ccc(CCNC(C(=O)c2c[nH]c3cc(CC(=O)O)ccc23)c2ccccc2)cc1 (single isomer, unassigned) [160 Isomer 1] | > 5 µM
35 | N#Cc1ccc(CCNC(C(=O)c2c[nH]c3cc(CC(=O)O)ccc23)c2ccccc2)cc1 (single isomer, unassigned) [160 Isomer 2] | 4.01 µM
36 | CC(C)(O)CNC(=O)c1ccc2c(C(=O)C(NCCc3ccc(C#N)cc3)c3ccccc3)c[nH]c2c1 (single isomer, unassigned) [161 Isomer 1] | 3.35 µM
37 | N#Cc1ccc(CCNC(C(=O)c2c[nH]c3cc(C(=O)NC4CN(CC(F)(F)F)C4)ccc23)c2ccccc2)cc1 (single isomer, unassigned) [162 Isomer 1] | 4.86 µM
38 | N#Cc1ccc(CCNC(C(=O)c2c[nH]c3cc(C(=O)NC4CN(CC(F)(F)F)C4)ccc23)c2ccccc2)cc1 (single isomer, unassigned) [162 Isomer 2] | 0.135 µM
39 | CCN1CC(NC(=O)c2ccc3c(C(=O)C(NCCc4ccc(C#N)cc4)c4ccccc4)c[nH]c3c2)C1 (single isomer, unassigned) [163 Isomer 1] | 2.84 µM
40 | CCN(CC)C(=O)c1ccc2c(C(=O)C(NCCc3ccc(C#N)cc3)c3ccccc3)c[nH]c2c1 (single isomer, unassigned) [165 Isomer 1] | 4.33 µM
41 | CCN(CC)C(=O)c1ccc2c(C(=O)C(NCCc3ccc(C#N)cc3)c3ccccc3)c[nH]c2c1 (single isomer, unassigned) [165 Isomer 2] | 2.36 µM
42 | N#Cc1ccc(CCNC(C(=O)c2c[nH]c3cc(C(=O)NC4CS(=O)(=O)C4)ccc23)c2ccccc2)cc1 (single isomer, unassigned) [166 Isomer 1] | 0.123 µM
43 | CC(C)NC(=O)c1ccc2c(C(=O)C(NCCc3ccc(C#N)cc3)c3ccccc3)c[nH]c2c1 (single isomer, unassigned) [167 Isomer 1] | 0.0232 µM
44 | CC(C)NC(=O)c1ccc2c(C(=O)C(NCCc3ccc(C#N)cc3)c3ccccc3)c[nH]c2c1 (single isomer, unassigned) [167 Isomer 2] | 0.746 µM
45 | C[C@H](O)CNC(=O)c1ccc2c(C(=O)C(NCCc3ccc(C#N)cc3)c3ccccc3)c[nH]c2c1 (single isomer, unassigned) [168 Isomer 1] | 4.12 µM
46 | C[C@H](O)CNC(=O)c1ccc2c(C(=O)C(NCCc3ccc(C#N)cc3)c3ccccc3)c[nH]c2c1 (single isomer, unassigned) [168 Isomer 2] | 0.0531 µM
47 | C[C@H](NC(=O)c1ccc2c(C(=O)C(NCCc3ccc(C#N)cc3)c3ccccc3)c[nH]c2c1)C(F)(F)F (single isomer, unassigned) [169 Isomer 1] | 1.79 µM
48 | C[C@H](NC(=O)c1ccc2c(C(=O)C(NCCc3ccc(C#N)cc3)c3ccccc3)c[nH]c2c1)C(F)(F)F (single isomer, unassigned) [169 Isomer 2] | 0.0871 µM
49 | C[C@@H](NC(=O)c1ccc2c(C(=O)C(NCCc3ccc(C#N)cc3)c3ccccc3)c[nH]c2c1)C(F)(F)F (single isomer, unassigned) [170 Isomer 1] | 0.296 µM
50 | C[C@@H](NC(=O)c1ccc2c(C(=O)C(NCCc3ccc(C#N)cc3)c3ccccc3)c[nH]c2c1)C(F)(F)F (single isomer, unassigned) [170 Isomer 2] | 4.11 µM
51 | N#Cc1ccc(CCNC(C(=O)c2c[nH]c3cc(C(=O)N4CCCC4)ccc23)c2ccccc2)cc1 (single isomer, unassigned) [171 Isomer 1] | > 5 µM
52 | N#Cc1ccc(CCNC(C(=O)c2c[nH]c3cc(C(=O)N4CCCC4)ccc23)c2ccccc2)cc1 (single isomer, unassigned) [171 Isomer 2] | 0.932 µM
53 | CN(C)C(=O)c1ccc2c(C(=O)C(NCCc3ccc(C#N)cc3)c3ccccc3)c[nH]c2c1 (single isomer, unassigned) [172 Isomer 1] | 4.24 µM
54 | CN(C)C(=O)c1ccc2c(C(=O)C(NCCc3ccc(C#N)cc3)c3ccccc3)c[nH]c2c1 (single isomer, unassigned) [172 Isomer 2] | 0.657 µM

Same assay, conditions: read-out: P300 HAT SPA IC50; p300 HAT domain; average of at least 2 replicate titrations

Row | SMILES | IC50
55 | O=C(c1cn(CC(F)(F)F)c2ccccc12)C(NCCc1ccc(Cl)cc1)c1ccccc1 (single isomer, unassigned) [130 Isomer 2] | > 60 µM
